Results as given in ChEMBL document CHEMBL5726211, “SGC stimulators” (2019).

Test: HEK WC Assay: Human embryonic kidney cells (HEK293), endogenously expressing soluble guanylate cyclase (sGC), were used to evaluate the activity of test compounds. Compounds stimulating the sGC receptor should cause an increase in the intracellular concentration of cGMP. HEK 293 cells were seeded in Dulbecco's Modification of Eagle's Medium supplemented with fetal bovine serum (10% final) and L-glutamine (2 mM final) in a 200 μL volume at a density of 1×10^5 cells/well in a poly-D-lysine coated 96 well flat bottom plate and grown overnight at 37° C. Medium was aspirated and cells were washed with 1× Hank's Buffered Saline Salt Solution (200 μL). Cells were then incubated for 15 minutes at 37° C. with 0.5 mM 3-isobutyl-1-methylxanthine (200 μL). Test article and sodium nitroprusside were then added to the assay mixture (2 μL each) and incubated at 37° C. for 10 minutes. After the 10 minute incubation, the assay mixture was aspirated and 0.1M HCl (200 μL) was added to the cells. The plate was incubated at 4° C. for 30 minutes in the 0.1M HCl to stop the reaction and lysed the cells. The plates were then centrifuged at 1,200 g for 5 minutes at room temperature. Supernatants were collected and transferred to a new flat bottom 96 well plate for analysis. Vehicle controls were carried out using DMSO (1%). A known sGC stimulator, BAY 41-2272, was used as the positive control. Samples were diluted with an equal volume of 1 M Ammonium Acetate (pH 7) to neutralize samples for better chromatography. A 2×cGMP standard curve was prepared in 0.1 M HCl and then diluted with an equal volume of 1 M Ammonium Acetate, with the following final concentrations in nM: 1024, 512, 256, 128, 64, 32, 16, 8, 4, 2, 1. cGMP concentrations were determined from each sample using the LC/MS conditions (Table 2 below) and calculated standard curve. EC50 values were calculated from concentration-response curves generated with GraphPad Prism Software.
Type: cell-based
In the case of `Nc1nc(-c2cc(-c3ccon3)n(Cc3ccccc3F)n2)ncc1NC(=O)c1cscn1`, the EC50 is reported as < 20 µM. With `CN(C)c1ccccc1C(=O)Nc1cnc(-c2cc(-c3ccon3)n(Cc3ccccc3F)n2)nc1N` the EC50 was 40 to 60 µM. In the case of `COc1ccc(C(=O)Nc2cnc(-c3cc(-c4ccon4)n(Cc4ccccc4F)n3)nc2N)cc1`, the EC50 is reported as < 20 µM. For `[C-]#[N+]c1cc(-c2ccccn2)nn1Cc1ccccc1F`, the EC50 was 30 µM. In the case of `CC(C)(F)C(=O)Nc1cnc(-c2cc(-c3ccon3)n(Cc3ccccc3F)n2)nc1N`, the EC50 is reported as < 20 µM. For `Nc1nc(-c2cc(-c3ccon3)n(Cc3ccccc3F)n2)ncc1NC(=O)C1CC2C=CC1C2` (stereo unspecified), the EC50 was < 20 µM. With `Nc1nc(-c2cc(-c3ncco3)n(Cc3ccccc3F)n2)ncc1NC(=O)C1(C(F)(F)F)CC1` the EC50 was < 20 µM. With `Nc1nc(-c2cc(-c3ccon3)n(Cc3ccccc3F)n2)ncc1NC(=O)c1cccc(OC(F)(F)F)c1` the EC50 was < 20 µM. In the case of `[C-]#[N+]C1(C(=O)Nc2cnc(-c3cc(-c4ccon4)n(Cc4ccccc4F)n3)nc2N)CC1`, the EC50 is reported as < 20 µM. For `Cc1cccc(C)c1C(=O)Nc1cnc(-c2cc(-c3ccon3)n(Cc3ccccc3F)n2)nc1N`, the EC50 was < 20 µM. In the case of `CCOC(=O)c1cnc(-c2cc(-c3ccon3)n(Cc3ccccc3F)n2)nc1O`, the EC50 is reported as 20 to 40 µM.
